The values below come from US20240118287A1, “ANALYSIS PLATE FOR A MASS SPECTROMETRY ANALYSIS AND ASSOCIATED METHOD FOR CHARACTERIZING MICROORGANISMS BY MASS SPECTROMETRY” (priority 2021, published 2024).

Common to all, as to type: cell-based
The subject of one assay is Ref 1 K. pneumoniae. Description: MIC by microdilution in broth, reference strain Ref 1. More on the design: key to Phenotype (R = resistant, S = sensitive): RA signifies resistance to amoxicillin; RC signifies resistance to ceftriaxone; RM signifies resistance to meropenem; RO resistance to oxacillin; SA signifies sensitive to amoxicillin; SC signifies sensitive to ceftriaxone; SM signifies sensitive to meropenem; SO sensitive to oxacillin. The note with it: for Phenotype (R = resistant, S = sensitive): KPC-2; for MIC: Klebsiella pneumoniae, KPC-2, microdilution in broth, read-out: Minimum inhibitory concentration (MIC in μg/ml). The method, then:
(§1) The minimum inhibitory concentration (MIC in μg/ml) was determined by microdilution in broth, a technique very widely used by a person skilled in the art.

Assay [1] deals with Isolate 8 (Klebsiella pneumoniae). Put plainly: Resistance characterization on functionalized analysis plate, MALDI-TOF (Example 4). The note with it: isolate 8 (K. pneumoniae); threshold identification probability ≥90% for at least 3 deposits out of 4; amoxicillin 2, ceftriaxone 24, meropenem 2 μg/ml. The method, then:
(§2) This cassette comprises a gasket so as to be able to dispose the analysis plate on a sponge impregnated to saturation with Muller-Hinton culture medium. The sponge impregnated with a culture medium serves as a support, and it is made of porous material as described in the description.
(§3) A cover was placed on the cassette containing the analysis plate so as to be clipped on the cassette and close the device without touching the top of the drops.
(§4) The analysis cassettes thus prepared were incubated in the stove at 37° C. for 2, 3, 4 or 5 hours.
(§5) At the end of the incubation step, the analysis plates are placed on very absorbent, dry blotting paper, with an absorption capacity of 25 μL·cm^−2, so that the drops present on the analysis plate are aspirated by capillarity through the analysis zones made of porous material.
(§6) 1 μl of HCCA matrix, alpha-cyano 4-hydroxycinnamic acid (VITEK®MS-CHCA, bioMérieux reference 411071) was deposited on the analysis zones, comprising the microorganisms and the antimicrobial agent, and on the calibration zones comprising the calibrant.
(§7) The analysis plate is then dried and analyzed by VITEK®MS as described in example 1.
(§8) The isolates identified in example 1 were diluted to 0.5 McFarland (McF) in Muller-Hinton medium (bioMérieux reference AEB 110699), then diluted again to 1/100° for the Gram-negative bacteria and to 1/10° for the Gram-positive bacteria, always in Muller-Hinton medium.
(§9) Drops of 2 μl of the final dilutions were deposited on the analysis zones of the analysis plates according to the invention as described in example 2. As before, the dilutions of E. coli and of K. pneumoniae were analyzed on the targets with 16 deposits of amoxicillin, 16 deposits of ceftriaxone and 16 deposits of meropenem. The dilutions of Staphylococci were analyzed on the targets with 2 μg/ml of oxacillin.
(§10) The analysis was carried out according to the same procedure as in example 3 with an incubation of 4 h for all the microorganisms. Moreover, the results were interpreted as in example 3, i.e. with a threshold of identification probability greater than or equal to 90% for at least 3 deposits out of 4.

The subject of assay [2] is Isolate 7 (Klebsiella pneumoniae). The description is as above. The note with it: isolate 7 (K. pneumoniae); threshold identification probability ≥90% for at least 3 deposits out of 4; amoxicillin 2, ceftriaxone 24, meropenem 2 μg/ml. The method, then: as §2, §3, §4, §5, §6, §7, §8, §9, §10
For assay [3], the system named is Isolate 3 (Escherichia coli). The assay is described as above. The note with it: threshold identification probability ≥90% for at least 3 deposits out of 4, amoxicillin 2, ceftriaxone 24, meropenem 2 μg/ml. How it is done: as §2, §3, §4, §5, §6, §7, §8, §9, §10
Assay [4] has as its system Isolate 5 (Escherichia coli). The description is as above. The settings on record: isolate 5 (E. coli); threshold identification probability ≥90% for at least 3 deposits out of 4; amoxicillin 2, ceftriaxone 24, meropenem 2 μg/ml. The method, then:
as §2, §3, §4, §5, §6, §7, §8, §9, §10

For assay [5], the system named is Isolate 1 (Escherichia coli). The description is as above. The note with it: threshold identification probability ≥90% for at least 3 deposits out of 4, amoxicillin 2, ceftriaxone 24, meropenem 2 μg/ml. How it is done:
as §2, §3, §4, §5, §6, §7, §8, §9, §10

The subject of the next assay is Ref 4 E. coli. Description: MIC by microdilution in broth, reference strain Ref 4. Set-up: key to Phenotype (R = resistant, S = sensitive): RA signifies resistance to amoxicillin; RC signifies resistance to ceftriaxone; RM signifies resistance to meropenem; RO resistance to oxacillin; SA signifies sensitive to amoxicillin; SC signifies sensitive to ceftriaxone; SM signifies sensitive to meropenem; SO sensitive to oxacillin. The settings on record: for MIC: Escherichia coli, microdilution in broth, read-out: Minimum inhibitory concentration (MIC in μg/ml). The method, then: as §1
(In general: Dilution methods test growth across graded concentrations, often in twofold steps.)

In another assay the test system is Ref 3 E. coli. Description: MIC by microdilution in broth, reference strain Ref 3. Set-up: key to Phenotype (R = resistant, S = sensitive): RA signifies resistance to amoxicillin; RC signifies resistance to ceftriaxone; RM signifies resistance to meropenem; RO resistance to oxacillin; SA signifies sensitive to amoxicillin; SC signifies sensitive to ceftriaxone; SM signifies sensitive to meropenem; SO sensitive to oxacillin. The settings on record: for MIC: Escherichia coli, TEM-2, microdilution in broth, read-out: Minimum inhibitory concentration (MIC in μg/ml); for Phenotype (R = resistant, S = sensitive): TEM-2. How it is done: as §1

A further assay has as its system Ref 2 K. pneumoniae. Description: MIC by microdilution in broth, reference strain Ref 2. Set-up: key to Phenotype (R = resistant, S = sensitive): RA signifies resistance to amoxicillin; RC signifies resistance to ceftriaxone; RM signifies resistance to meropenem; RO resistance to oxacillin; SA signifies sensitive to amoxicillin; SC signifies sensitive to ceftriaxone; SM signifies sensitive to meropenem; SO sensitive to oxacillin. The note with it: for MIC: Klebsiella pneumoniae, OXA-48, microdilution in broth, read-out: Minimum inhibitory concentration (MIC in μg/ml); for Phenotype (R = resistant, S = sensitive): OXA-48. How it is done:
as §1

Another assay has as its system Ref 5 E. coli. Description: MIC by microdilution in broth, reference strain Ref 5. More on the design: key to Phenotype (R = resistant, S = sensitive): RA signifies resistance to amoxicillin; RC signifies resistance to ceftriaxone; RM signifies resistance to meropenem; RO resistance to oxacillin; SA signifies sensitive to amoxicillin; SC signifies sensitive to ceftriaxone; SM signifies sensitive to meropenem; SO sensitive to oxacillin. The note with it: CTX-M; for MIC: Escherichia coli, microdilution in broth, read-out: Minimum inhibitory concentration (MIC in μg/ml). How it is done: as §1

Converted amounts (≈) assume the structure as drawn.

In the case of `CC1(C)S[C@@H]2[C@H](NC(=O)[C@H](N)c3ccc(O)cc3)C(=O)N2[C@H]1C(=O)O` [Amoxicillin, amoxicillin], the “Phenotype (R = resistant, S = sensitive)” value with Ref 1 K. pneumoniae is “RA”; in the assay with Ref 4 E. coli it was “SA”; in the assay on Ref 3 E. coli, “RA”; in the assay with Ref 2 K. pneumoniae it was “RA”; in the assay with Ref 5 E. coli it was “RA”. Also, the MIC is over 128 µg/mL in the assay with Ref 1 K. pneumoniae; 1 µg/mL (≈ 2.74 µM) with Ref 4 E. coli; 32 µg/mL (≈ 87.6 µM) in the assay on Ref 3 E. coli; 64 µg/mL (≈ 175 µM) with Ref 2 K. pneumoniae; over 128 µg/mL with Ref 5 E. coli. Moreover, the “Isolate characterized as resistant or sensitive to the antibiotic” value (shortened to “Isolate characterized”) in assay [1], in assay [2], in assay [3], in [4] and in assay [5] was “resistant” in each case.
As for `CO/N=C(\C(=O)N[C@@H]1C(=O)N2C(C(=O)O)=C(CSc3nc(=O)c(=O)[nH]n3C)CS[C@H]12)c1csc(N)n1` [Ceftriaxone, ceftriaxone], the “Phenotype (R = resistant, S = sensitive)” value with Ref 1 K. pneumoniae was “RC”; in the assay with Ref 4 E. coli it was “SC”; in the assay with Ref 3 E. coli it was “RC”; in the assay on Ref 2 K. pneumoniae, “RC”; with Ref 5 E. coli, “RC”. For the same compound, the MIC with Ref 1 K. pneumoniae came to 64 µg/mL (≈ 115 µM); in the assay with Ref 4 E. coli, 0.25 µg/mL (≈ 0.451 µM); in the assay on Ref 3 E. coli it was 16 µg/mL (≈ 28.9 µM); with Ref 2 K. pneumoniae it was 32 µg/mL (≈ 57.7 µM); in the assay with Ref 5 E. coli it was 8 µg/mL (≈ 14.4 µM). In addition, the “Isolate characterized” value in assay [1] is on record as “resistant”; in assay [2], “sensitive”; in assay [3] it was “resistant”; in assay [4] it was “sensitive”; in [5] it was “sensitive”.
Take `C[C@@H](O)[C@H]1C(=O)N2C(C(=O)O)=C(S[C@@H]3CN[C@H](C(=O)N(C)C)C3)[C@H](C)[C@H]12` [Meropenem, meropenem]: the “Phenotype (R = resistant, S = sensitive)” value with Ref 1 K. pneumoniae is “RM”; with Ref 4 E. coli, “SM”; with Ref 3 E. coli, “SM”; with Ref 2 K. pneumoniae it was “SM”; with Ref 5 E. coli, “SM”. Moreover, the MIC came to 64 µg/mL (≈ 167 µM) in the assay on Ref 1 K. pneumoniae; 0.06 µg/mL (≈ 0.156 µM) in the assay with Ref 4 E. coli; 0.5 µg/mL (≈ 1.3 µM) with Ref 3 E. coli; 0.25 µg/mL (≈ 0.652 µM) with Ref 2 K. pneumoniae; 0.5 µg/mL (≈ 1.3 µM) in the assay on Ref 5 E. coli. Besides, the “Isolate characterized” value in assay [1], in assay [2], in assay [3], in [4] and in assay [5] was “sensitive” each time.
